details: not given

First: C[Si]1(C)O[Si](C)(C)O[Si](C)(C)O[Si](C)(C)O[Si](C)(C)O[Si](C)(C)O[Si](C)(C)O[Si](C)(C)O1
Second: CN1C(C)(C)CCCC1(C)C
The boiling point of the first is higher: 290 °C for the first, 147 °C for the second.

Going from `CC(=O)Oc1ccc(OC(C)=O)c(OC(C)=O)c1` to `COc1ccccc1O`, the boiling point falls from 300 °C to 205 °C.

First: CCCCCCC(O)CCC (stereo not given)
Second: CCCCCCCCC(=O)CC
The boiling point of the first is lower: 210 °C for the first, 227 °C for the second.

First: O=[N+]([O-])CCCl
Second: ClCC(Br)CBr (stereo not given)
The boiling point of the first is lower: 174 °C for the first, 196 °C for the second.

First: NCCCCCN
Second: C=CCCCCCCCCC
The boiling point of the first is lower: 179 °C for the first, 193 °C for the second.

First: CC1=CC(=O)[C@H]2C[C@@H]1C2(C)C
Second: CC/C=C\CC1=C(C)CCC1=O
The boiling point of the first is lower: 228 °C for the first, 258 °C for the second.

Compared with `Oc1c(Cl)c(Cl)c(Cl)c(Cl)c1Cl`, `Cc1cccc(Cl)c1O` is lower in boiling point: 310 °C for the first, 189 °C for the second.

Compared with `CCCCC(Cl)CC` (stereo not given), `CCCC(C)C(O)CC` (stereo not given) is higher in boiling point: 144 °C for the first, 170 °C for the second.

Compared with `C1CC2CCCC2C1` (stereo not given), `CCCN(CCC)C(C)=O` is higher in boiling point: 139 °C for the first, 210 °C for the second.

First: Nc1ccc(/N=N/c2ccccc2)cc1
Second: Brc1ccc(Oc2ccccc2)cc1
The boiling point of the first is higher: 366 °C for the first, 310 °C for the second.

First: c1ccc2c(c1)-c1cccc3cccc-2c13
Second: Clc1nc2ccccc2o1
The boiling point of the first is higher: 384 °C for the first, 202 °C for the second.

First: CS(C)=O
Second: COCC(C)O (stereo not given)
The boiling point of the first is higher: 189 °C for the first, 119 °C for the second.

Compared with `c1cncc(-c2cccnc2)c1`, `CC#Cc1ccccc1` is lower in boiling point: 292 °C for the first, 183 °C for the second.

Going from `C=C(Cl)CC` to `CCc1ccc(OC)cc1`, the boiling point rises from 58.5 °C to 198 °C.

Compared with `CCCCCCC(C)NC(C)CCCCCC` (stereo not given), `O=C(O)CCc1ccccc1` is lower in boiling point: 283 °C for the first, 280 °C for the second.

`FC=C(F)Br` showed a boiling point of 19 °C.

Compared with `C[Si]1(C)O[Si](C)(C)O[Si](C)(C)O[Si](C)(C)O[Si](C)(C)O[Si](C)(C)O[Si](C)(C)O[Si](C)(C)O1`, `CCOc1cc(OP(=S)(OC)OC)nc(CC)n1` is lower in log10 vapour pressure (mmHg): -2.54 for the first, -4.1 for the second.

First: Oc1c(Cl)c(Cl)c(Cl)c(Cl)c1Cl
Second: OC(c1ccc(Cl)cc1)(c1ccc(Cl)cc1)C(Cl)(Cl)Cl
The log10 vapour pressure (mmHg) of the first is higher: -3.96 for the first, -6.4 for the second.

Compared with `Nc1ccc(/N=N/c2ccccc2)cc1`, `Brc1ccc(Oc2ccccc2)cc1` is higher in log10 vapour pressure (mmHg): -5.85 for the first, -2.82 for the second.

Going from `c1ccc2c(c1)-c1cccc3cccc-2c13` to `O=C(O)CCc1ccccc1`, the log10 vapour pressure (mmHg) rises from -5.04 to -2.57.

First: CS(C)=O
Second: COCC(C)O (stereo not given)
The log10 vapour pressure (mmHg) of the first is lower: -0.215 for the first, 1.1 for the second.

First: C=CCCCCCCCCC
Second: CCCCCCCCCCCBr
The log10 vapour pressure (mmHg) of the first is higher: -0.307 for the first, -1.92 for the second.

First: COC(=O)[C@@H]1C2CCC(C[C@@H]1OC(=O)c1ccccc1)N2C (stereo not given in full)
Second: COc1ccccc1O
The log10 vapour pressure (mmHg) of the first is lower: -6.72 for the first, -0.987 for the second.

With `ClCC(Br)CBr` (stereo not given) the log10 vapour pressure (mmHg) was -0.237.

First: C[Si]1(C)O[Si](C)(C)O[Si](C)(C)O[Si](C)(C)O[Si](C)(C)O[Si](C)(C)O[Si](C)(C)O[Si](C)(C)O1
Second: CC(C)C(C)CCC(C)C1CCC2=C3CCC4CC(O)CCC4(C)C3CCC21C (stereo not given)
The melting point of the first is lower: 31.5 °C for the first, 131 °C for the second.

First: CCCCCCC(O)CCC (stereo not given)
Second: CCCCCCCCC(=O)CC
The melting point of the first is lower: -11 °C for the first, 12 °C for the second.

First: CN1CCC(N(Cc2cccs2)c2ccccc2)CC1
Second: COC(=O)[C@@H]1C2CCC(C[C@@H]1OC(=O)c1ccccc1)N2C (stereo not given in full)
The melting point of the first is lower: 96 °C for the first, 98 °C for the second.

Compared with `NCCCCCN`, `C=CCCCCCCCCC` is lower in melting point: 9 °C for the first, -49.2 °C for the second.

Compared with `Sc1nc2ccccc2s1`, `COc1ccccc1O` is lower in melting point: 181 °C for the first, 32 °C for the second.

Compared with `Oc1c(Cl)c(Cl)c(Cl)c(Cl)c1Cl`, `OC(c1ccc(Cl)cc1)(c1ccc(Cl)cc1)C(Cl)(Cl)Cl` is lower in melting point: 174 °C for the first, 77.5 °C for the second.

Going from `CCOc1cc(OP(=S)(OC)OC)nc(CC)n1` to `CCCCOc1ccc(OCCCC)cc1`, the melting point rises from -3.35 °C to 45.5 °C.

Going from `Nc1ccc(/N=N/c2ccccc2)cc1` to `Brc1ccc(Oc2ccccc2)cc1`, the melting point falls from 127 °C to 18.7 °C.

First: CS(C)=O
Second: CC(=O)NCCSC(C)=O
The melting point of the first is lower: 18.5 °C for the first, 32.5 °C for the second.

Compared with `c1cncc(-c2cccnc2)c1`, `N#CCc1ccccc1Br` is lower in melting point: 68 °C for the first, 1 °C for the second.

Going from `CCCC(C)C(O)CC` (stereo not given) to `COCC(C)O` (stereo not given), the melting point rises from -123 °C to -95 °C.

Compared with `COc1cc(O)c2c(c1)OC(c1ccc(O)cc1)CC2=O` (stereo not given), `COc1ccccc1CC(=O)O` is lower in melting point: 152 °C for the first, 124 °C for the second.

Compared with `ClCC(Br)CBr` (stereo not given), `CCCCCCCCCCCBr` is lower in melting point: 6 °C for the first, -9 °C for the second.

Going from `O=C(O)c1ccc([N+](=O)[O-])o1` to `O=C(C[N+](=O)[O-])Nc1ccccc1`, the melting point falls from 186 °C to 94 °C.

First: CCCCCCCCCCCCCCCC[N+](C)(C)C.[Br-]
Second: CC(C)[C@@H](C)/C=C/[C@@H](C)[C@H]1CC[C@H]2C3=CC=C4C[C@@H](O)CC[C@]4(C)C3=CC[C@]12C
The melting point of the first is higher: 240 °C for the first, 146 °C for the second.

First: Fc1ccc(C(c2ccc(F)cc2)C(Cl)(Cl)Cl)cc1
Second: Cl.N=C(N)SCc1ccc(Cl)cc1
The melting point of the first is lower: 44.5 °C for the first, 197 °C for the second.

First: CC(=O)N=C1C=CC(=O)C=C1
Second: O=C(O)CCc1ccccc1
The melting point of the first is lower: 74.5 °C for the first, 107 °C for the second.

Going from `Sc1nc2ccccc2s1` to `COc1ccccc1O`, the log10 Koc (L/kg) falls from 2.25 to 1.56.

First: Oc1c(Cl)c(Cl)c(Cl)c(Cl)c1Cl
Second: OC(c1ccc(Cl)cc1)(c1ccc(Cl)cc1)C(Cl)(Cl)Cl
The log10 Koc (L/kg) of the first is higher: 4.3 for the first, 3.7 for the second.

Compared with `Nc1ccc(/N=N/c2ccccc2)cc1`, `Brc1ccc(Oc2ccccc2)cc1` is higher in log10 Koc (L/kg): 2.79 for the first, 4.23 for the second.

Going from `CCCNc1c([N+](=O)[O-])cc(C(F)(F)F)cc1[N+](=O)[O-]` to `c1ccc2c(c1)-c1cccc3cccc-2c13`, the log10 Koc (L/kg) rises from 3.61 to 4.8.

Work on `ClCC(Br)CBr` (stereo not given) yielded a log10 Koc (L/kg) of 1.85.

With `Sc1nc2ccccc2s1` the ready biodegradability was “readily biodegradable”.
In the case of `Oc1c(Cl)c(Cl)c(Cl)c(Cl)c1Cl`, the ready biodegradability is reported as “not readily biodegradable”.
In the case of `Nc1ccc(/N=N/c2ccccc2)cc1`, the ready biodegradability is reported as “not readily biodegradable”.
With `c1ccc2c(c1)-c1cccc3cccc-2c13` the ready biodegradability was “not readily biodegradable”.
With `CS(C)=O` the ready biodegradability was “not readily biodegradable”.
For `OC(c1ccc(Cl)cc1)(c1ccc(Cl)cc1)C(Cl)(Cl)Cl`, the ready biodegradability was “not readily biodegradable”.
In the case of `ClCC(Br)CBr` (stereo not given), the ready biodegradability is reported as “not readily biodegradable”.
For `COCC(C)O` (stereo not given), the ready biodegradability was “readily biodegradable”.
For `COc1ccccc1O`, the ready biodegradability was “readily biodegradable”.

Going from `Oc1c(Cl)c(Cl)c(Cl)c(Cl)c1Cl` to `c1ccc2c(c1)-c1cccc3cccc-2c13`, the log10 Henry constant (atm·m³/mol) rises from -7.61 to -5.05.

Compared with `CS(C)=O`, `COCC(C)O` (stereo not given) is higher in log10 Henry constant (atm·m³/mol): -8.82 for the first, -6.04 for the second.

First: CCC(O)CO[N+](=O)[O-] (stereo not given)
Second: COc1ccccc1O
The log10 Henry constant (atm·m³/mol) of the first is lower: -6.76 for the first, -5.92 for the second.

Going from `c1ccc2c(c1)-c1cccc3cccc-2c13` to `CS(C)=O`, the log10 Koa falls from 8.88 to 4.96.

Work on `c1ccc2c(c1)-c1cccc3cccc-2c13` yielded a log10 biodegradation half-life (days) of 2.17.

same assay, conditions: fish

Compared with `Nc1cccc2c1C(=O)c1ccccc1C2=O`, `c1ccc2c(c1)-c1cccc3cccc-2c13` is higher in log10 BCF: 1.98 for the first, 3.56 for the second.

Compared with `Oc1cccc(Br)c1`, `Sc1nc2ccccc2s1` is lower in log10 BCF: 1.18 for the first, 0.9 for the second.

Compared with `Brc1cc(Br)c(Oc2c(Br)c(Br)c(Br)c(Br)c2Br)c(Br)c1Br`, `Oc1c(Cl)c(Cl)c(Cl)c(Cl)c1Cl` is lower in log10 BCF: 5.75 for the first, 2.66 for the second.

Going from `C1=CC2C3C=CC(C3)C2C1` (stereo not given) to `OC(c1ccc(Cl)cc1)(c1ccc(Cl)cc1)C(Cl)(Cl)Cl`, the log10 BCF rises from 2.34 to 3.79.

First: CS(C)=O
Second: ClCC(Br)CBr (stereo not given)
The log10 BCF of the first is lower: 0.6 for the first, 1.06 for the second.

Going from `Nc1cccc2c1C(=O)c1ccccc1C2=O` to `c1ccc2c(c1)-c1cccc3cccc-2c13`, the log10 biotransformation half-life (days) rises from -0.59 to -0.02.

Going from `Oc1cccc(Br)c1` to `OC(c1ccc(Cl)cc1)(c1ccc(Cl)cc1)C(Cl)(Cl)Cl`, the log10 biotransformation half-life (days) rises from -0.95 to 1.99.

`N#Cc1nn(-c2c(Cl)cc(C(F)(F)F)cc2Cl)c(N)c1S(=O)C(F)(F)F` (stereo not given) and `Oc1c(Cl)c(Cl)c(Cl)c(Cl)c1Cl` are within 0.2 log units of each other in log10 biotransformation half-life (days): -0.21 for the first, -0.2 for the second.

First: C=CCCCCCCCCC
Second: ClCC(Br)CBr (stereo not given)
The log10 biotransformation half-life (days) of the first is higher: 0.09 for the first, -1.14 for the second.
